Earlier results, collected in patent US20240199640A1, “NEGATIVE ALLOSTERIC MODULATORS OF METABOTROPIC GLUTAMATE RECEPTOR 2” (priority 2021, published 2024).

Tests used:
[1] = system: Aβ-induced neurodegeneration; details: cited from earlier work
C57Bl6/J mice = details: cited from earlier work
Helpless (H) mice = details: cited from earlier work; for activity in the tail suspension test: Helpless (H) mice
[2] = system: central mGlu2 and mGlu3 receptors; details: in vivo; cited from earlier work
mouse = details: normal animals; cited from earlier work
mice = details: treated mice; cited from earlier work
rat = details: normal animals; cited from earlier work
[3] = conditioned fear stress; cited from earlier work
[4] = system: social isolation-reared mice; details: cited from earlier work
[5] = treatment for 7 days; cited from earlier work
[6] = system: olfactory bulbectomized rats; details: repeated administration for 14 days; cited from earlier work

## CCS(=O)(=O)N(Cc1cccnc1)c1cccc(-c2ccc(C#N)cc2)c1 [LY566332]
[1]
  Aβ-induced neurodegeneration: amplified

## N[C@](CC1c2ccccc2Oc2ccccc21)(C(=O)O)[C@H]1C[C@@H]1C(=O)O [LY341495]
C57Bl6/J mice
  immobility time in the FST: dose-dependently reduced
Helpless (H) mice
  activity in the tail suspension test: active
Helpless (H) mice; acute administration
  antidepressant effect in helpless mice: potent antidepressant effect
[2]
  hypolocomotor effect of mGlu2/3 agonist (LY379268): achieved the same result
mouse
  Antidepressant-like effects in mouse tail-suspension test: Antidepressant-like effects
mice
  marble-burying behavior: significantly reduce
[1]
  Aβ-induced neurodegeneration: prevented
rat
  Antidepressant-like effects in rat forced swim test: Antidepressant-like effects

## N[C@]1(C(=O)O)[C@H]2[C@@H](C[C@H]1OCc1ccc(Cl)c(Cl)c1)[C@]2(F)C(=O)O [MGS0039]
[3]
  freezing behavior: significantly decreased
mouse
  Antidepressant-like effects in mouse tail-suspension test: Antidepressant-like effects
mice
  marble-burying behavior: reduced
  spontaneous locomotor activity: no significant change
[4]
  increased immobility in the FST: reversed
[5]
  number of escape failures: significantly reduced
rat
  Antidepressant-like effects in rat forced swim test: Antidepressant-like effects
[6]
  hyperactivity in the open field test: attenuated
  learning deficit in the passive avoidance test: attenuated

## Cc1cc(-c2cccc(C3=Nc4cc(C)c(C(F)(F)F)cc4NC(=O)C3)c2)cc(C)n1 [RO4491533]
C57Bl6/J mice
  immobility time in the FST: dose-dependently reduced
Helpless (H) mice
  activity in the tail suspension test: active
[2]
  hypolocomotor effect of mGlu2/3 agonist (LY379268): reversed

## CN1C(=O)CN=C(c2ccccc2)c2cc(Cl)ccc21 [diazepam]
[3]
  freezing behavior: significantly decreased
